Data: patent publication US20240408064A1, “RAS INHIBITORS, COMPOSITIONS AND METHODS OF USE THEREOF” (GENETOLEAD INC., priority 2021, published 2024)
“And” between values parts separate entries of the source, which are not always exact repeats. Identical values can stand only once. “Also recorded” adds a separate entry of the source.

Experiments:
[1] = target: T1, HRas^G12V (Homo sapiens (Human), UniProt P01112, G12V); assay: 19F DLB (ligand-observed 19F NMR) score; assay type: binding; parameters: scale not given here
Summary of the method: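 In the T2-CPMG experiment, echo spacing was 1 ms and total delays ranged over eight values from 1 to 800 ms. Both scores come from 600 MHz NMR of 50 μM HRas G12V mixed with fragment pools at 240 μM each, in phosphate buffer pH 7.4 with NaCl, MgCl2 and TCEP-d16. Ligand-observed 19F spectra were recorded with 1H decoupling, 64 scans and a 5 s relaxation delay.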

[2] = target: T1, HRas^G12V; assay: Dissociation constant by NMR (1H/15N Fast-HSQC, 1H 1D protein-observed); assay type: binding; details: HRas^G12V; read-out: NMR Kd
[3] = target: T1, HRas^G12V; assay: Overall binding/activity in the various assays (NMR consensus binding)
Summary of the method: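 Fragments (240 µM each, pooled) screened against 50 µM HRas^G12V in 25 mM sodium phosphate pH 7.4, 150 mM NaCl, 5 mM MgCl2, 1 mM TCEP-d16 by 1H-decoupled 1D 19F NMR. Hits confirmed by ligand- and protein-observed 1D 1H, STD and T2-CPMG (aggregation check); consensus binding ranked, with 15N HSQC for sites and Kd.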

[4] = target: T2, KRAS^G12D-GDP (Homo sapiens (Human), UniProt P01116, G12D); assay: 19F DLB score, KRAS^G12D-GDP; assay type: binding; parameters: scale not given here
Method: (§1) Since the fragment library was curated using phosphate buffer, 25 mM sodium phosphate pH 7.4, 150 mM NaCl, 5 mM MgCl2, 1 mM TCEP-d16, 10% D2O Fresh TCEP was used for experiments. Screening was performed using ^1H-decoupled 1D ^19F experiment Bruker experiment (zgfhigqn.2) with 64 scans and a relaxation delay of 5 seconds. 50 μM HRas^G12V and 240 μM of each fragment in pools (mixtures) were used.
(§2) Hit confirmation was performed using the same ^19F experiment as the screen. Ligand-observed 1D ^1H, protein-observed 1D ^1H, ^1H T2-CPMG as well as Saturation Transfer Difference (STD) experiments were also run on the same samples. Ligand-observed 1D ^1H was run using the standard Bruker sequence with excitation sculpting (zgesgp) with a relaxation delay of 10 seconds and 16 scans per spectrum. Protein-observed 1D ^1H was performed using the same sequence with a relaxation delay of 1 second and 256 scans in order to increase the signal-to-noise of the protein resonances, while keeping the experimental time relatively short. The ^1H T2-CPMG experiment employed a modified version of the Bruker 1D ^1H zgesgp experiment with the addition of a CPMG pulse train after the first 90° excitation pulse. Total duration for each spin echo was fixed at 1 ms (τ=500 μs), while the number of echoes in the pulse train was varied according to the total time (T). The number of scans for each spectrum was 4 and eight delay times were run on each sample, ranging from 1 ms to 800 ms.
(§3) The activity of compounds of the invention regarding KRAS^G12D-GDP was measured in the same as in Example 80. The results obtained with the compounds in the various assays described above are depicted in Table 23.

[5] = target: T2, KRAS^G12D-GDP; assay: 19F T2-CPMG score, KRAS^G12D-GDP; assay type: binding
Method: as §1, §2, §3

[6] = target: GDP-HRas^G12V (Homo sapiens (Human), UniProt P01112, G12V); assay: Dissociation constant by microscale thermophoresis (MST); assay type: binding
Method: MST experiments were performed with a Monolith NT.115 Pico (NanoTemper Technologies, Munich, Germany). […] Data was acquired in PBS buffer with 0.1% pluronic acid. Data was analyzed with the NanoTemper MO.Affinity Analysis software.

T2 sequence (P01116-2 other isoform, or with tags, fused parts or gaps G12D): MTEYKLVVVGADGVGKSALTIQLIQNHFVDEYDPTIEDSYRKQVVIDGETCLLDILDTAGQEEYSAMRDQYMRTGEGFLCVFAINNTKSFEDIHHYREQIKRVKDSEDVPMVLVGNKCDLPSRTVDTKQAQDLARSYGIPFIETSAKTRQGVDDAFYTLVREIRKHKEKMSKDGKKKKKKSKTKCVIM

19F DLB Score [1]	Kd [2] [µM]	Activity ranking on HRas^G12V (in words) [3]	19F DLB Score [4]	19F T2-CPMG Score [5]	Kd [6] [µM]	SMILES
1.64 and 1.79 and 1.93 and 1.86 and 1.71	3030 to 3700	More active	1.73	12.20	–	CC(C)N1CCC(NC(=O)Cc2c[nH]c3cc(F)ccc23)CC1 [Compound 10018]
3.04	2370 to 4000	More active	3.33	>LOQ	1810 to 2080	O=C(Cc1c[nH]c2cc(F)ccc12)N1CCC(O)CC1 [Compound 10086]
4.19	36	More active; also recorded: Most active	3.56	>LOQ	19.1 to 23.5	CN(C)CCOc1cccc(NC(=O)Cc2c[nH]c3cc(F)ccc23)c1 [Compound 10095, N-(3-(2-(dimethylamino)ethoxy)phenyl)-2-(6-fluoro-1H-indol-3-yl)acetamide]
3.84	108	More active; also recorded: Most active	4.36	>LOQ	65 to 82.9	CN(C)CC(=O)Nc1cccc(NC(=O)Cc2c[nH]c3cc(F)ccc23)c1 [compound 10097]
